Structures can show the parent of a compound that is named as a salt. Where two headings read alike, the source gives them in different places.
Legend:
[1] = molecular target: T1, human 5-hydroxytryptamine2C (h5HT2C) receptor (Homo sapiens, UniProt P28335); experiment: 5HT2C receptor binding ([125I]DOI displacement, CHO cell membranes)
T1 construct: expressed in transfected cells; host or cells: CHO (Chinese Hamster Ovary) cells; membrane preparation
T1 sequence (P28335 33-458): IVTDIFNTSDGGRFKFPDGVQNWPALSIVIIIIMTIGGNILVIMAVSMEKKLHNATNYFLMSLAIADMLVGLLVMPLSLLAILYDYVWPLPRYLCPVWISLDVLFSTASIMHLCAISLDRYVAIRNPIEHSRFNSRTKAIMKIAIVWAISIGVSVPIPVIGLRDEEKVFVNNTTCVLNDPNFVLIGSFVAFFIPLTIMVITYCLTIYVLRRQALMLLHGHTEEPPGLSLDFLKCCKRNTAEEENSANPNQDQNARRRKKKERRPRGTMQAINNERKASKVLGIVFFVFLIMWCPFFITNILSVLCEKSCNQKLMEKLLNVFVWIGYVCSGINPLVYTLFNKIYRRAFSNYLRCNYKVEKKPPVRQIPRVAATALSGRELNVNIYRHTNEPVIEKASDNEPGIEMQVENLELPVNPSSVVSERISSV

In the case of `c1cc2c3c(c1)CC1CCCC1N3CCNC2` (stereo not drawn) (as salt: HCl) [Example 1, trans isomer, Trans-1,2,3,4,8,8a,9,10,11,11a-decahydro-cyclopenta[b][1,4]diazapino[6,7,1-ij]quinoline], the melting point is reported as 190 °C (dec.).

With `c1cc2c3c(c1)C[C@@H]1CCC[C@@H]1N3CCNC2` (relative stereo) (as salt: HCl) [Example 1, cis isomer, Cis 1,2,3,4,8,8a,9,10,11,11a-decahydro-cyclopenta[b][1,4]diazepino[6,7,1-ij]quinoline] the melting point was 180 to 190 °C (dec.).

In the case of `c1cc2c3c(c1)C[C@H]1CCCC[C@H]1N3CCNC2` (relative stereo) (as salt: HCl) [Example 2, cis isomer, (Cis)-1,2,3,4,8a,9,10,11,12,12a,-decahydro-8H-[1,4]diazepino[6,7,1-de]acridine], the melting point is reported as 150 to 155 °C.

Compound `c1cc2c3c(c1)C[C@@H]1CCC[C@@H]1N3CCNC2` (relative stereo) [Example 1, cis isomer, Cis 1,2,3,4,8,8a,9,10,11,11a-decahydro-cyclopenta[b][1,4]diazepino[6,7,1-ij]quinoline] has a Ki [1] of 118 nM.

`c1cc2c3c(c1)C[C@H]1CCCC[C@H]1N3CCNC2` (relative stereo) [Example 2, cis isomer, (Cis)-1,2,3,4,8a,9,10,11,12,12a,-decahydro-8H-[1,4]diazepino[6,7,1-de]acridine] gave a Ki [1] of 511 nM.

Work on `c1cc2c3c(c1)CC1CCCC1N3CCNC2` (stereo not drawn) [Example 1, trans isomer, Trans-1,2,3,4,8,8a,9,10,11,11a-decahydro-cyclopenta[b][1,4]diazapino[6,7,1-ij]quinoline] yielded a Ki [1] of 71 nM.

`c1cc2c3c(c1)CC1CCCCC1N3CCNC2` (stereo not drawn) [Example 2, trans isomer, (Trans)-1,2,3,4,8a,9,10,11,12,12a,-decahydro-8H-[1,4]diazepino[6,7,1-de]acridine] showed a melting point of 95 °C and a Ki [1] of 513 nM.

`CSc1ccc2c(c1)C(N1CCN(C)CC1)Cc1ccccc1S2` (stereo not shown) [Methiothepin, reference compound] showed a Ki ([1]; [125I]DOI binding, CHO membranes expressing h5HT2C, read-out: Ki (95% confidence interval), reference compounds) of 4.6 nM.

Compound `COc1cc(CC(C)N)c(OC)cc1I` (stereo not shown) [[^125I] DOI, reference compound] has a Kd ([1]; read-out: dissociation constant, KD of [125I] DOI at the human serotonin 5HT2C receptor, saturation binding with increasing concentrations of [125I] DOI) of 0.4 nM.
